Converted amounts (≈) assume the structure as drawn.
Target: E. coli PBP1a (Escherichia coli (strain K12), UniProt P02918)
Assay: Radioligand competition binding assay with 14C-labeled boronic acid probe, PBP1a
Conditions: not given
How it was run: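 Purified E. coli PBP1a (0.1 μM) preincubated 60 min with test boronic acid inhibitor in 20 mM Tris pH 7.5, 500 mM NaCl, 0.1% Triton X-100, then 60 min with 20 μM ^14C-labeled boronic acid probe. Bound probe recovered by spin desalting and counted by scintillation; EC50 reported.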

Chain of E. coli PBP1a (P02918 whole entry): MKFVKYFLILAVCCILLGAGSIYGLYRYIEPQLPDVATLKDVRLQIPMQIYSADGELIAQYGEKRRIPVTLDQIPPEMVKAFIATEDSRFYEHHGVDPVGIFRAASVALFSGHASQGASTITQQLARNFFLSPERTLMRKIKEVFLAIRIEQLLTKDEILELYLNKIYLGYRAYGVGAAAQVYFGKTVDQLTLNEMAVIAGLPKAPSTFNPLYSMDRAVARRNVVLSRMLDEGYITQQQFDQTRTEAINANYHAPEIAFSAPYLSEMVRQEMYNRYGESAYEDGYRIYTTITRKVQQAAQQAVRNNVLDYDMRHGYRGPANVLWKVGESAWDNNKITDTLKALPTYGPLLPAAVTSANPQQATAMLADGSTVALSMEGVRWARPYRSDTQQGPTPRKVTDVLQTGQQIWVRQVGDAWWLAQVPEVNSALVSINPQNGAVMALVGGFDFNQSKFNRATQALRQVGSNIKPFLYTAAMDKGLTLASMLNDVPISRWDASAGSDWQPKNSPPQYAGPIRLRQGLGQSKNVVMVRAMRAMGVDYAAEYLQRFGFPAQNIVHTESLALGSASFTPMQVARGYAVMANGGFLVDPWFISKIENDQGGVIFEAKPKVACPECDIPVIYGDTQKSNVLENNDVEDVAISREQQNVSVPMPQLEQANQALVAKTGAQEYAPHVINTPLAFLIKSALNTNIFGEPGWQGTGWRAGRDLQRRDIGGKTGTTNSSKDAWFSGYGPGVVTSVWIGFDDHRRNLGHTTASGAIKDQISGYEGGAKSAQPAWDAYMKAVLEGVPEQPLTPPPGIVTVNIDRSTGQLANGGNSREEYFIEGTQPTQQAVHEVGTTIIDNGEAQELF

| SMILES | EC50 |
| --- | --- |
| CCN1CCN(C(=O)NC(C(=O)N[C@H]2Cc3cccc(C(=O)O)c3OB2O)c2ccc(S(N)(=O)=O)cc2)C(=O)C1=O (stereo partly drawn) [Example 102, (3R)-3-(2-(4-ethyl-2,3-dioxopiperazine-1-carboxamido)-2-(4-sulfamoylphenyl)acetamido)-2-hydroxy-3,4-dihydro-2H-benzo[e][1,2]oxaborinine-8-carboxylic acid] | 10 to 100 µM |
| CCN1CCN(C(=O)NC(C(=O)N[C@H]2Cc3cccc(C(=O)O)c3OB2O)c2csc(N)n2)C(=O)C1=O (stereo partly drawn) [Example 5, (3R)-3-(2-(2-aminothiazol-4-yl)-2-(4-ethyl-2,3-dioxopiperazine-1-carboxamido)acetamido)-2-hydroxy-3,4-dihydro-2H-benzo[e][1,2]oxaborinine-8-carboxylic acid] | < 10 µM |
| NS(=O)(=O)c1ccc(C(NC(=O)N2CCN(CCF)C(=O)C2=O)C(=O)N[C@H]2Cc3cccc(C(=O)O)c3OB2O)cc1 (stereo partly drawn) [Example 103, (3R)-3-(2-(4-(2-fluoroethyl)-2,3-dioxopiperazine-1-carboxamido)-2-(4-sulfamoylphenyl)acetamido)-2-hydroxy-3,4-dihydro-2H-benzo[e][1,2]oxaborinine-8-carboxylic acid] | 10 to 100 µM |
| CCN1CCN(C(=O)NC(C(=O)N[C@H]2Cc3cccc(C(=O)O)c3OB2O)c2ccc(O)c(O)c2F)C(=O)C1=O (stereo partly shown) [Example 70] | < 10 µM |
| O=C(O)c1cccc2c1OB(O)[C@@H](NC(=O)C(NC(=O)N1CCN(CCF)C(=O)C1=O)c1ccc(O)c(O)c1Cl)C2 (stereo partly drawn) [Example 71, (3R)-3-(2-(2-chloro-3,4-dihydroxyphenyl)-2-(4-(2-fluoroethyl)-2,3-dioxopiperazine-1-carboxamido)acetamido)-2-hydroxy-3,4-dihydro-2H-benzo[e][1,2]oxaborinine-8-carboxylic acid] | < 10 µM |
| CCN1CCN(C(=O)NC(C(=O)N[C@H]2Cc3cccc(C(=O)O)c3OB2O)c2ccc(O)cc2)C(=O)C1=O (stereo partly drawn) [Example 27, (3R)-3-(2-(4-ethyl-2,3-dioxopiperazine-1-carboxamido)-2-(4-hydroxyphenyl)acetamido)-2-hydroxy-3,4-dihydro-2H-benzo[e][1,2]oxaborinine-8-carboxylic acid] | < 10 µM |

Test system: E. coli DH5α empty pLBII vector control strain
Assay: microbe, parasite or virus in culture
Type: cell-based, Escherichia coli
Conditions: Escherichia coli, read-out: Microbiological Activity (MIC in mg/L), E. coli DH5α/pLBII
How it was run: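 MIC was the lowest concentration visibly free of growth after 16–20 h at 37 °C, against 5×10^5 CFU/mL of the empty-pLBII DH5α control strain. Twofold compound dilutions were made in cation-adjusted Mueller-Hinton broth.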

| SMILES | MIC |
| --- | --- |
| CCN1CCN(C(=O)NC(C(=O)N[C@H]2Cc3cccc(C(=O)O)c3OB2O)c2ccc(O)c(O)c2Cl)C(=O)C1=O (stereo partly drawn) [Example 37, (3R)-3-(2-(2-chloro-3,4-dihydroxyphenyl)-2-(4-ethyl-2,3-dioxopiperazine-1-carboxamido)acetamido)-2-hydroxy-3,4-dihydro-2H-benzo[e][1,2]oxaborinine-8-carboxylic acid] | 8 to 16 mg/L (≈ 13.9 to 27.8 µM) |
| CCN1CCN(C(=O)NC(C(=O)N[C@H]2Cc3cc(F)cc(C(=O)O)c3OB2O)c2csc(N)n2)C(=O)C1=O (stereo partly drawn) [Example 16, (3R)-3-(2-(2-aminothiazol-4-yl)-2-(4-ethyl-2,3-dioxopiperazine-1-carboxamido)acetamido)-6-fluoro-2-hydroxy-3,4-dihydro-2H-benzo[e][1,2]oxaborinine-8-carboxylic acid] | 32 to 64 mg/L (≈ 58.4 to 117 µM) |
| CCN1CCN(C(=O)NC(C(=O)N[C@H]2Cc3cccc(C(=O)O)c3OB2O)c2ccc(O)cc2)C(=O)C1=O (stereo partly drawn) [Example 27, (3R)-3-(2-(4-ethyl-2,3-dioxopiperazine-1-carboxamido)-2-(4-hydroxyphenyl)acetamido)-2-hydroxy-3,4-dihydro-2H-benzo[e][1,2]oxaborinine-8-carboxylic acid] | 8 to 16 mg/L (≈ 15.3 to 30.5 µM) |
| CCN1CCN(C(=O)NC(C(=O)N[C@H]2Cc3cccc(C(=O)O)c3OB2O)c2cnc(N)s2)C(=O)C1=O (stereo partly drawn) [Example 51, (3R)-3-(2-(2-aminothiazol-5-yl)-2-(4-ethyl-2,3-dioxopiperazine-1-carboxamido)acetamido)-2-hydroxy-3,4-dihydro-2H-benzo[e][1,2]oxaborinine-8-carboxylic acid] | 8 to 16 mg/L (≈ 15.1 to 30.2 µM) |

— patent US12173018B2, “Penicillin-binding protein inhibitors” (priority 2018, dated 2024)
